Experimental findings from patent publication US20210221785A1, “AMINO-PYRIMIDONYL DERIVATIVES, A PROCESS FOR THEIR PREPARATION AND PHARMACEUTICAL COMPOSITIONS CONTAINING THEM” (LES LABORATOIRES SERVIER, priority 2018, published 2021) are described below.

Assay [1] deals with T1, His-His-USP7 (aa208-560, |C315A|) (Homo sapiens, UniProt Q93009, C315A).
T1 construct: His-His-USP7 (aa208-560, |C315A|); His-His (N)
The assay can be described thus: Evaluation of the inhibition of USP7 by the Fluorescence Intensity (FLINT) readings. In kind it is biochemical. As to conditions: 0.25 nM His-His-USP7, compound incubated 60 minutes at 30° C., 500 nM Ubiquitin-Rhodamine-110 substrate; 50% reduction in kinetic rate. In short, it runs like this:
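IC50 reflects 50% reduction in kinetic rate of rhodamine-110 release (Ex485/Em535, reads every 3 min over 21 min), normalised to DMSO and no-enzyme controls, from an 11-point 4-parameter fit. Substrate is 500 nM Ub-Rh110, added after 60 min, 30 °C preincubation of compound with 0.25 nM USP7 aa208–560 C315A. Buffer is Bicine pH 8.0 with 10% DMSO.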

Assay [2] has as its system Z138 mantle cell lymphoma tumour cell lines. Nature of the assay: In vitro cytotoxicity, MTT assay. In kind it is cell-based. As to conditions: Homo sapiens, Z-138, 96 h, Z138 cells exposed to the test compounds for 96 hours; cell viability vs DMSO treated cells. In a few lines:
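Z138 cells exposed to compounds for 96 hours, then MTT added for 4 hours. Viable cells quantified from formazan absorbance at 540 nm.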

T1 sequence (Q93009 208-560 C315A): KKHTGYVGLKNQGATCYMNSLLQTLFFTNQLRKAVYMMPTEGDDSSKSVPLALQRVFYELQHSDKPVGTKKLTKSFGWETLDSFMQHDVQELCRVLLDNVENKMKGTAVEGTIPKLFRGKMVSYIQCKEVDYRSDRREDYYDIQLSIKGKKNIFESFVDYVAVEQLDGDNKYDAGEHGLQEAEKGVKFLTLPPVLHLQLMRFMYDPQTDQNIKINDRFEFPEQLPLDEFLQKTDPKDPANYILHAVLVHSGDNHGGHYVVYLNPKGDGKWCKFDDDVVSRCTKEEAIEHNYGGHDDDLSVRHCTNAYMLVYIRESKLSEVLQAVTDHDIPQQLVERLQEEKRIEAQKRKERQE

`NCc1ccc(Oc2ncn(C[C@@]3(O)CCN(C(=O)[C@@H]4CCC(F)(F)C[C@H]4c4ccccc4)CC3(F)F)c(=O)c2N)cc1` [Example 90, 5-amino-6-[4-(aminomethyl)phenoxy]-3-({(4S)-1-[(1R,2R)-4,4-difluoro-2-phenylcyclohexane-1-carbonyl]-3,3-difluoro-4-hydroxypiperidin-4-yl}methyl)pyrimidin-4(3H)-one]: the results for the IC50 in assay [1] and in assay [2] were 3.9 nM and 0.16 µM, respectively.

As for `Nc1c(Oc2ccc(F)cc2)ncn(CC2(O)CCN(C(=O)[C@@H]3CC[C@@](O)(Cc4ccccn4)C[C@H]3c3ccccc3)CC2)c1=O` (relative stereo) [Example 97, rel-5-amino-6-(4-fluorophenoxy)-3-[(4-hydroxy-1-{[(1R,2R,4S)-4-hydroxy-2-phenyl-4-(pyridin-2-ylmethyl)cyclohexyl]carbonyl}piperidin-4-yl)methyl]pyrimidin-4-one], the IC50 in assay [1] is 38.2 nM; in assay [2] it was 0.497 µM.

Turning to `Nc1c(Oc2ccc(F)cc2)ncn(CC2(O)CCN(C(=O)[C@@H]3CC[C@@](F)(C#Cc4cnccn4)C[C@H]3c3ccccc3)CC2)c1=O` [Example 137, 5-amino-3-({1-[(1R42R,4S)-4-fluoro-2-phenyl-4-[2-(pyrazin-2-yl)ethynyl]cyclohexanecarbonyl]-4-hydroxypiperidin-4-yl}methyl)-6-(4-fluorophenoxy)-3,4-dihydropyrimidin-4-one], the results for the IC50 in assay [1] and in assay [2] were 62.7 nM and 0.0246 µM, respectively.

Regarding `Nc1c(Oc2cccc(C3CNCCO3)c2)ncn(CC2(O)CCN(C(=O)[C@@H]3CCC(F)(F)C[C@H]3c3ccccc3)CC2)c1=O` (stereo partly drawn) [Example 115, 5-amino-3-([1-[(1R,2R)-4,4-difluoro-2-phenylcyclohexane-1-carbonyl]-4-hydroxypiperidin-4-yl]methyl)-6-[3-(morpholin-2-yl)phenoxy]pyrimidin-4(3H)-one], the IC50 amounted to 37.2 nM in assay [1] and 0.85 µM in assay [2].

On to `Cc1cnnc(C#C[C@@]2(F)CC[C@@H](C(=O)N3CC[C@](O)(Cn4cnc(Oc5ccc(F)cc5)c(N)c4=O)C(F)(F)C3)[C@H](c3ccccc3)C2)c1` [Example 172, 5-amino-3-{[(4S)-3,3-difluoro-1-[(1R,2R,4R)-4-fluoro-4-[2-(5-methylpyridazin-3-yl)ethynyl]-2-phenylcyclohexanecarbonyl]-4-hydroxypiperidin-4-yl]methyl}-6-(4-fluorophenoxy)-3,4-dihydropyrimidin-4-one], for which the figures for the IC50 in assay [1] and in assay [2] were 5.5 nM and 0.00501 µM, respectively.

For the compound `Cc1cnc(C#C[C@]2(F)CC[C@@H](C(=O)N3CCC(O)(Cn4cnc(Oc5ccc(F)cc5)c(N)c4=O)CC3)[C@H](c3ccccc3)C2)cn1` [Example 151, 5-amino-3-({1-[(1R,2R,4S)-4-fluoro-4-[2-(5-methylpyrazin-2-yl)ethynyl]-2-phenylcyclohexanecarbonyl]-4-hydroxypiperidin-4-yl}methyl)-6-(4-fluorophenoxy)-3,4-dihydropyrimidin-4-one], the results for the IC50 in assay [1] and in assay [2] were 11.4 nM and 0.0191 µM, respectively.

As to `CC(N)c1ccc(Oc2ncn(CC3(O)CCN(C(=O)[C@@H]4CCC(F)(F)C[C@H]4c4ccccc4)CC3)c(=O)c2N)cc1` (single isomer, unassigned; diastereoisomer 1) [Example 54], the IC50 worked out at 7.4 nM in assay [1] and 0.273 µM in assay [2].

As to `NCc1cccc(Oc2ncn(CC3(O)CCN(C(=O)[C@@H]4CCC(F)(F)C[C@H]4c4ccccc4)CC3)c(=O)c2N)c1` [Example 61, 5-amino-6-[3-(aminomethyl)phenoxy]-3-({1-[(1R,2R)-4,4-difluoro-2-phenylcyclohexane-1-carbonyl]-4-hydroxypiperidin-4-hydroxypiperidin-4-yl}methyl)pyrimidin-4(3H)-one], the IC50 in assay [1] was 9.8 nM; in assay [2], 0.028 µM.

In general, IC50 refers to the point on the concentration scale where inhibition reaches its midpoint.
